Laboratory results taken from patent US4980372A, “Benzoylaminophenoxybutanoic acid derivatives” (Ono Pharmaceutical Co., Ltd., priority 1987, dated 1990).

molecular target: 5α-reductase; assay: 5α-reductase inhibitory activity in vitro; type: biochemical, rat; conditions: male rats' prostate enzyme, [4-C14]-testosterone, NADPH, 60 mins at 37° C., pH 7.4
Method: 5α-reductase inhibitory activity in vitro
Inhibitory activity on 5α-reductase in vitro was measured by the following test system.
The test was carried out by making reference to the method of J. Shimazaki et al [See Endocrinical. Japon., 18, 179 (1971)].
Male rats' prostate (4 g) was homogenized with its triple volume of 0.1M HEPES buffer (pH 7.4) including 0.25M cane sugar, and was centrifuged at 3000 r.p.m. for 10 mins.
The precipitate was suspended into the buffer solution described above (10 ml), and the suspension was centrifuged at 3000 r.p.m. for 5 mins. The resulting precipitated was suspended in the buffer solution (3 ml) described above and was used as a sauce of enzyme.
A reaction mixture (total volume 0.1 ml) of [4-C^14 ]-testosterone (1.5 n mol, 1.5×10^5 cpm) NADPH (0.5 μmol) enzyme solution (0.03 ml) described above and several kinds of concentration of the compounds in the present invention was incubated for 60 mins at 37° C. Enzyme reaction was quenched by addition of a mixture (1.0 ml) of diethyl ether, petroleum ether and acetic acid (80:20:1), and the mixture was centrifuged at 3000 r.p.m. for 5 mins. The supernatant (200 μl) was spotted on silica gel thin layer plate. The spot on the plate was developed with a mixture of chloroform, methanol and acetic acid (99:0.8:0.2). Radioactivity of dihydrotestosterone generated on the plate was measured by TLC scanner of radio-autography and inhibitory ratio was calculated.

SMILES | IC50 [nM]
CC(C)Cc1ccc(COc2ccc(C(=O)Nc3ccccc3OCCCC(=O)O)c3ccccc23)cc1 [2(aa), 4-[2-[4-[4-isobutylbenzyloxy)naphthalene-1-carbonylamino]phenoxy]butanoic acid] | 520
CC(C)Cc1ccc(COc2ccc(C(=O)Nc3ccccc3SCCCC(=O)O)c3c2CCCC3)cc1 [2(bb), 4-[2-[4-(4-isobutylbenzyloxy)-5,6,7,8-tetrahydronaphthalene-1-carbonylamino]phenylthio]butanoic acid] | 420
Cc1c(OC(C)c2ccc(CC(C)C)cc2)ccc(C(=O)Nc2ccccc2SCCCC(=O)O)c1C (centres unmarked) [2(dd), 4-[2-[4-[1-(4-isobutylphenyl)ethoxy]-2,3-dimethylbenzoylamino]phenylthio]butanoic acid] | 120
Cc1cccc(C)c1COc1ccc(C(=O)Nc2ccccc2OCCCC(=O)O)c(C)c1C [2(e), 4-[2-[4-(2,6-dimethylbenzyloxy)-2,3-dimethylbenzoylamino]phenoxy]butanoic acid] | 1400
Cc1c(OCCc2ccccc2)ccc(C(=O)Nc2ccccc2OCCCC(=O)O)c1C [2(k), 4-[2-[4-(2-phenylethoxy)-2,3-dimethylbenzoylamino]phenoxy]butanoic acid] | 2600
Cc1c(OCCCc2ccccc2)ccc(C(=O)Nc2ccccc2OCCCC(=O)O)c1C [2(l)] | 1000
Cc1c(OCCCCc2ccccc2)ccc(C(=O)Nc2ccccc2OCCCC(=O)O)c1C [2(m), 4-[2-[4-(4-phenylbutoxy)-2,3-dimethylbenzoylamino]phenoxy]butanoic acid] | 750
Cc1c(OCCCCCc2ccccc2)ccc(C(=O)Nc2ccccc2OCCCC(=O)O)c1C [2(n), 4-[2-[4-(5-phenylpentyloxy)-2,3-dimethylbenzoylamino]phenoxy]butanoic acid] | 950
Cc1c(OC(C)c2ccc(CC(C)C)cc2)ccc(C(=O)Nc2ccccc2OCCCC(=O)O)c1C (centres unmarked) [2(o), 4-[2-[4-[1-(4-isobutylphenyl)ethoxy]-2,3-dimethylbenzoylamino]phenoxy]butanoic acid] | 5
CCCc1ccc(C(Oc2ccc(C(=O)Nc3ccccc3OCCCC(=O)O)c(C)c2C)c2ccc(CCC)cc2)cc1 [2(p), 4-[2-[4-[bis(4-propylphenyl)methoxy]-2,3-dimethylbenzoylamino]phenoxy]butanoic acid] | 11
Cc1c(OC(c2ccccc2)c2ccccc2)ccc(C(=O)Nc2ccccc2OCCCC(=O)O)c1C [2(q)] | 200
CC(C)Cc1ccc(COc2ccc(C(=O)Nc3ccccc3OCCCC(=O)O)c(Cl)c2Cl)cc1 [2(x), 4-[2-[4-(4-isobutylbenzyloxy)-2,3-dichlorobenzoylamino]phenoxy]butanoic acid] | 2800
CC(C)Cc1ccc(COc2ccc(C(=O)Nc3ccccc3OCCCC(=O)O)c3c2CCC3)cc1 [2(y), 4-[2-(7-(4-isobutylbenzyloxy)indane-4-carbonylamino]phenoxy]butanoic acid] | 410
CC(C)Cc1ccc(COc2ccc(C(=O)Nc3ccccc3OCCCC(=O)O)c3c2CCCC3)cc1 [2(z), 4-[2-[4-(4-isobutylbenzyloxy)-5,6,7,8-tetrahydronaphthalene-1-carbonylamino]phenoxy]butanoic acid] | 50

Second part, the molecule after the results:

IC50 [nM] | SMILES
2100 | Cc1c(OCc2ccccc2)ccc(C(=O)Nc2ccccc2OCCCC(=O)O)c1C [2(a), 4-[2-(4-benzyloxy-2,3-dimethylbenzoylamino)phenoxy]butanoic acid]
380 | Cc1ccccc1COc1ccc(C(=O)Nc2ccccc2OCCCC(=O)O)c(C)c1C [2(b), 4-[2-[4-(2-methylbenzyloxy)-2,3-dimethylbenzoylamino]phenoxy]butanoic acid]
1300 | Cc1cccc(COc2ccc(C(=O)Nc3ccccc3OCCCC(=O)O)c(C)c2C)c1 [2(c), 4-[2-[4-(3-methylbenzyloxy)-2,3-dimethylbenzoylamino]phenoxy]butanoic acid]
380 | CCCc1ccc(COc2ccc(C(=O)Nc3ccccc3SCCCC(=O)O)c(C)c2C)cc1 [2(cc), 4-[2-[4-(4-propylbenzyloxy)-2,3-dimethylbenzoylamino)phenylthio]butanoic acid]
980 | Cc1ccc(COc2ccc(C(=O)Nc3ccccc3OCCCC(=O)O)c(C)c2C)cc1 [2(d), 4-[2-[4-(4-methylbenzyloxy)-2,3-dimethylbenzoylamino]phenoxy]butanoic acid]
270 | CCc1ccc(COc2ccc(C(=O)Nc3ccccc3OCCCC(=O)O)c(C)c2C)cc1 [2(f), 4-[2-[4-(4-ethybenzyloxy)-2,3-dimethylbenzoylamino]phenoxy]butanoic acid]
340 | CCCc1ccc(COc2ccc(C(=O)Nc3ccccc3OCCCC(=O)O)c(C)c2C)cc1 [2(g), 4-[2-[4-(4-propylbenzyloxy)-2,3-dimethylbenzoylamino]phenoxy]butanoic acid]
260 | Cc1c(OCc2ccc(C(C)C)cc2)ccc(C(=O)Nc2ccccc2OCCCC(=O)O)c1C [2(h), 4-[2-[4-(4-isopropylbenzyloxy)-2,3-dimethylbenzoylamino]phenoxy]butanoic acid]
2000 | Cc1c(OCc2ccc(Cl)cc2)ccc(C(=O)Nc2ccccc2OCCCC(=O)O)c1C [2(i), 4-[2-[4-(4-chlorobenzyloxy)-2,3-dimethylbenzoylamino]phenoxy]butanoic acid]
2500 | Cc1c(OCc2ccc(CC3CCC3)cc2)ccc(C(=O)Nc2ccccc2OCCCC(=O)O)c1C [2(j), 4-[2-[4-(4-cyclobutylmethylbenzyloxy)-2,3-dimethylbenzoylamino]phenoxy]butanoic]
120 | Cc1c(OCc2ccc(CC(C)C)cc2)ccc(C(=O)Nc2ccccc2OCCCC(=O)O)c1C [Example 2, 4-[2-[4-(4 isobutylbenzyloxy)-2 3-dimethylbenzoylamino]phenoxy]butanoic acid]
700 | CCCc1ccc(COc2ccc(C(=O)Nc3ccccc3[S+]([O-])CCCC(=O)O)c(C)c2C)cc1 (centres unmarked) [Example 3, 4-[2-[4-(4-propylbenzyloxy)-2,3-dimethylbenzoylamino]phenylsulfinyl]butanoic acid]
